Laboratory results from US11945790B2 (ImmunoMolecular Therapeutics, Inc., priority 2020, dated 2024).

Biological target: HLA-DQ2 (Homo sapiens, UniProt P01909+P01920)
Assay: Inhibition of IL-2 secretion by TCR transductants stimulated by α-gliadin peptides presented by HLA-DQ2 expressing K562 cells (ELISA)
Format: cell-based
Settings: inhibition of IL-2 secretion at 200 uM; tested as trans racemate unless otherwise noted; lines naming several Examples = stereoisomer mixture of those Examples
Experimental: Three commercially available analogues of the DQ2 binding molecules of the invention were tested for their ability to inhibit stimulation of T cell receptor (TCR) transductants in the presence of HLA-DQ2 expressing cells presenting known α-gliadin epitopes.
Using a previously published in vitro assay (Ostrov D, et al. Methyldopa blocks MHC class II binding to disease specific antigens in autoimmune diabetes. J Clin Invest. 2018:128 (5)) the ability of these DQ2 binding analogues to inhibit interleukin-2 (IL-2) secretion by TCR transductants stimulated by α-gliadin peptides presented by HLA-DQ2 was determined. Individual TCR transductants (recognizing a I-gliadin or a II-gliadin) were cultured with a gliadin peptide plus the small molecule analogues in the presence of HLA-DQ2 expressing K562 cells serving as antigen presenting cells. TCR transductants cultured with no gliadin peptide served as the negative control, and incubation with an anti-CD3 antibody (eBioscience; clone 2C11) served as a positive control for the TCR transductant. Secreted IL-2 in the culture supernatant was measured using a highly sensitive enzyme-linked immunosorbent assay (ELISA). […] Assays for effects on cell viability and for specificity, assayed in the absence of gliadin peptide or in the presence of a stimulating anti-CD3 antibody, were performed. Unless otherwise noted, the stereochemistry shown below represents the relative configuration. Further, unless otherwise noted, compounds were tested as the trans racemate.

Sequence of HLA-DQ2 (P01920 33-261 limits assumed, other chains not shown): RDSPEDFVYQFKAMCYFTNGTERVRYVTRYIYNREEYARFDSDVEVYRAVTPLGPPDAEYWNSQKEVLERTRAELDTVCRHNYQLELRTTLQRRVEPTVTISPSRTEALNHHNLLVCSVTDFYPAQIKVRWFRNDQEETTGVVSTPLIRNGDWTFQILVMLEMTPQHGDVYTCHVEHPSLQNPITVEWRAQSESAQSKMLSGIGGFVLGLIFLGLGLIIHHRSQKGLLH

O=C(COC1CC1)N1CCN(C(=O)[C@@H]2C[C@H]2c2ccccc2)CC1 (racemic) [Example 38, 2-Cyclopropoxy-1-(4-(trans-2-phenylcyclopropanecarbonyl)piperazin-1-yl) ethanone] was tested, and the “% Inh at 200 uM” value was “C (C=25-49%)”.

For O=C(O)c1cccc(OCC(=O)N2CCN(C(=O)[C@@H]3C[C@H]3c3ccccc3)CC2)c1 [Example 107], the “% Inh at 200 uM” value was “D (D=0-24%)”.

COC(=O)c1cccc(OCC(=O)N2CCN(C(=O)[C@@H]3C[C@H]3c3ccccc3)CC2)c1 [Example 101] was tested, and the “% Inh at 200 uM” value was “A (A=≥75%)”.

O=C(CSc1ccc(F)cc1Cl)N1CCN(C(=O)[C@@H]2C[C@H]2c2ccccc2)CC1 (relative stereo) [Example 59, 2-((2-Chloro-4-fluorophenyl)thio)-1-(4-(trans-2-phenylcyclo-propanecarbonyl)piperazin-1-yl)ethanone] was tested, and the “% Inh at 200 uM” value was “C (C=25-49%)”.

With O=C(CCS(=O)(=O)c1ccccc1)N1CCN(C(=O)C2CC2c2ccc3c(c2)OCO3)CC1 (stereo not shown) [Example 16] the “% Inh at 200 uM” value was “A (A=≥75%)”.

O=C(CSC1CCCC1)N1CCN(C(=O)[C@H]2C[C@@H]2c2ccccc2O)CC1 [Example 37] was tested, and the “% Inh at 200 uM” value was “B (B=50-74%)”.

O=CNc1ccccc1SCC(=O)N1CCN(C(=O)[C@@H]2C[C@H]2c2ccccc2)CC1 [Example 86] was tested, and the “% Inh at 200 uM” value was “C (C=25-49%)”.

In the case of O=C(O)CCCSCC(=O)N1CCN(C(=O)[C@@H]2C[C@H]2c2ccccc2)CC1 [Example 114], the “% Inh at 200 uM” value is reported as “D (D=0-24%)”.

O=C(CN1CCCC1=O)N1CCN(C(=O)[C@@H]2C[C@H]2c2ccccc2)CC1 [Example 115] was tested, and the “% Inh at 200 uM” value was “D (D=0-24%)”.

For Cc1ccc(SCC(=O)N2CCN(C(=O)[C@@H]3C[C@H]3c3ccccc3)CC2)cc1C (relative stereo) [Example 56, 2-((3,4-Dimethylphenyl)thio)-1-(4-(trans-2-phenylcyclopropanecarbonyl)piperazin-1-yl) ethanone], the “% Inh at 200 uM” value was “B (B=50-74%)”.

O=C(CSC1CCCC1)N1CCN(C(=O)[C@H]2C[C@@H]2c2ccc(O)cc2)CC1 [Example 30] was tested, and the “% Inh at 200 uM” value was “D (D=0-24%)”.

In the case of O=C(Cc1c(F)cccc1Cl)N1CCN(C(=O)C2CC2c2ccc3c(c2)OCO3)CC1 (stereo not shown) [Example 23], the “% Inh at 200 uM” value is reported as “C (C=25-49%)”.

With O=C(c1ccccc1C(F)(F)F)N1CCN(C(=O)C2CC2c2ccc3c(c2)OCO3)CC1 (stereo not shown) [Example 21] the “% Inh at 200 uM” value was “C (C=25-49%)”.

Cc1nnsc1C(=O)N1CCN(C(=O)C2CC2c2ccc3c(c2)OCO3)CC1 (stereo not shown) [Example 9] was tested, and the “% Inh at 200 uM” value was “C (C=25-49%)”.

In the case of NC(=O)c1ccc(OCC(=O)N2CCN(C(=O)[C@@H]3C[C@H]3c3ccccc3)CC2)cc1 [Example 89], the “% Inh at 200 uM” value is reported as “C (C=25-49%)”.

CS(=O)(=O)N1CCC(C(=O)N2CCN(C(=O)C3CC3c3ccc4c(c3)OCO4)CC2)CC1 (stereo not shown) [Example 26] was tested, and the “% Inh at 200 uM” value was “C (C=25-49%)”.

O=C(CSc1ccccc1F)N1CCN(C(=O)[C@@H]2C[C@H]2c2ccccc2)CC1 (relative stereo) [Example 58, 2-((2-Fluorophenyl)thio)-1-(4-(trans-2-phenylcyclopropane-1-carbonyl)piperazin-1-yl) ethan-1-one] was tested, and the “% Inh at 200 uM” value was “A (A=≥75%)”.

With Cc1noc(C)c1CCC(=O)N1CCN(C(=O)C2CC2c2ccc3c(c2)OCO3)CC1 (stereo not shown) [Example 15] the “% Inh at 200 uM” value was “C (C=25-49%)”.

O=C(COc1ccccc1)N1CCN(C(=O)[C@@H]2C[C@H]2c2ccccc2)CC1 (relative stereo) [Example 48, 2-Phenoxy-1-(4-(trans-2-phenylcyclopropanecarbonyl)piperazin-1-yl) ethanone] was tested, and the “% Inh at 200 uM” value was “B (B=50-74%)”.
